According to publication PMC4590290 (Bioorganic chemistry, 2009):

Tests used:
GlAD [1] = biological target: T1, GlAD (Giardia duodenalis, UniProt Q27657); type: biochemical; details: read-out: KI; pH 7.5, 25 °C, 50 mM K+HEPES; covalent; irreversible, two-step inactivation; active site directed
GlAD [2] = biological target: T1, GlAD; assay: steady-state inhibition, glutamate dehydrogenase-coupled assay; type: biochemical

Compound | KI (inactivation) (GlAD [1]) [mM] | Ki (GlAD [2]) [mM]
N[C@@H](CCSN=O)C(=O)O [S-nitroso-L-homocysteine] | 40 ± 10 | 
N=C(N)NCCCC[C@H](N)C(=O)O [L-homoarginine] |  | 48 ± 6
N=C(N)NCCCCN [agmatine] |  | 50 ± 10
